# Source: ChEMBL document CHEMBL1201862, “PubChem BioAssay data set” (2004)
#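 In this assay, cells in 96-well plates receive the compound at five concentrations for 48 hours. Endpoints are linearly interpolated between the surrounding concentrations. GI50: concentration for 50% inhibition of growth.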 Active and inactive are the calls of the source. Cut-off read from the data, not from the text of the source: active = GI50 up to about 1.1 µM and inactive = higher.
# Tests used:
# Assay in all cases: growth of human tumour cells (NCI), 48 h
# Malme-3M = tested on: Malme-3M
# HCT-116 = tested on: HCT-116
# RXF 393 = tested on: RXF 393
# NCI-H460 = tested on: NCI-H460
# SR = tested on: SR
# SK-OV-3 = tested on: SK-OV-3
# OVCAR-5 = tested on: OVCAR-5
# LOX IMVI = tested on: LOX IMVI
# IGROV-1 = tested on: IGROV-1
# A549 = tested on: A549
# U-251 = tested on: U-251
# TK-10 = tested on: TK-10
# ACHN = tested on: ACHN
# MOLT-4 = tested on: MOLT-4
# OVCAR-4 = tested on: OVCAR-4
# SNB-19 = tested on: SNB-19
Structure (SMILES),GI50 (Malme-3M),GI50 (HCT-116),GI50 (RXF 393),GI50 (NCI-H460),GI50 (SR),GI50 (SK-OV-3),GI50 (OVCAR-5),GI50 (LOX IMVI),GI50 (IGROV-1),GI50 (A549),GI50 (U-251),GI50 (TK-10),GI50 (ACHN),GI50 (MOLT-4),GI50 (OVCAR-4),GI50 (SNB-19)
O=c1cc(-c2ccccc2)[nH]c2cc(F)cc(F)c12,16.7 µM (inactive),36.2 µM (inactive),29.2 µM (inactive),28.3 µM (inactive),3.75 µM (inactive),19.7 µM (inactive),43.5 µM (inactive),55.8 µM (inactive),37.8 µM (inactive),20.8 µM (inactive),29.1 µM (inactive),63.7 µM (inactive),50.9 µM (inactive),75.5 µM (inactive),> 100 µM (inactive),
CCS[C@H]1NC(=O)C1[C@H](C)O[Si](C)(C)C(C)(C)C (stereo not given in full),> 100 µM (inactive),86.1 µM (inactive),52.8 µM (inactive),> 100 µM (inactive),,,75.5 µM (inactive),32.2 µM (inactive),> 100 µM (inactive),81.3 µM (inactive),> 100 µM (inactive),> 100 µM (inactive),> 100 µM (inactive),,> 100 µM (inactive),> 100 µM (inactive)
CC(=O)NC1=C(C)C(=O)c2c(nc3n2CCC3O)C1=N (stereo not given),6.41 µM (inactive),2.39 µM (inactive),,22 µM (inactive),> 100 µM (inactive),28.2 µM (inactive),21.6 µM (inactive),5.85 µM (inactive),18.7 µM (inactive),30.8 µM (inactive),13.2 µM (inactive),29.9 µM (inactive),16.3 µM (inactive),1.95 µM (inactive),4.09 µM (inactive),25.1 µM (inactive)
N#CC(C(=O)CCC(=O)Nc1cccc(C(F)(F)F)c1)c1ccccc1 (stereo not given),> 100 µM (inactive),> 100 µM (inactive),> 100 µM (inactive),> 100 µM (inactive),,,> 100 µM (inactive),> 100 µM (inactive),> 100 µM (inactive),> 100 µM (inactive),> 100 µM (inactive),> 100 µM (inactive),> 100 µM (inactive),> 100 µM (inactive),> 100 µM (inactive),> 100 µM (inactive)
O=C(O)/C=C/c1nc2ccccc2c(=O)o1,,> 100 µM (inactive),,,,> 100 µM (inactive),,> 100 µM (inactive),> 100 µM (inactive),> 100 µM (inactive),> 100 µM (inactive),> 100 µM (inactive),> 100 µM (inactive),> 100 µM (inactive),> 100 µM (inactive),> 100 µM (inactive)
CN(C)CCNC(=O)c1cccc2nc3ccc4cccnc4c3nc12,,0.0467 µM (active),0.167 µM (active),0.0565 µM (active),,0.469 µM (active),0.916 µM (active),0.24 µM (active),0.359 µM (active),0.284 µM (active),0.405 µM (active),0.107 µM (active),0.126 µM (active),0.0441 µM (active),0.468 µM (active),0.362 µM (active)
CCC/C=C1\CCC(CN(C)C)C1=O (stereo not given),1.77 µM (inactive),9.91 µM (inactive),,28.1 µM (inactive),2.49 µM (inactive),36.3 µM (inactive),20 µM (inactive),7.35 µM (inactive),18.5 µM (inactive),29.6 µM (inactive),5.81 µM (inactive),5.41 µM (inactive),5.62 µM (inactive),2.88 µM (inactive),18.8 µM (inactive),36.7 µM (inactive)
O=C(CCCCCCCCCCc1ccccc1)C1=C(O)CC(O)CC1=O (stereo not given),,43.3 µM (inactive),> 100 µM (inactive),46.3 µM (inactive),40.9 µM (inactive),> 100 µM (inactive),39.5 µM (inactive),48.2 µM (inactive),72.4 µM (inactive),42.1 µM (inactive),55.1 µM (inactive),64.6 µM (inactive),58.5 µM (inactive),40.5 µM (inactive),74.3 µM (inactive),88.5 µM (inactive)
CC(=O)NC(CCCCN(Cc1ccccc1)C(=O)NCCCl)C(=O)NCc1ccccc1 (stereo not given),> 100 µM (inactive),> 100 µM (inactive),,> 100 µM (inactive),> 100 µM (inactive),,,,> 100 µM (inactive),> 100 µM (inactive),> 100 µM (inactive),,> 100 µM (inactive),> 100 µM (inactive),> 100 µM (inactive),> 100 µM (inactive)
CC(=O)CC(=O)/C=C/c1cccs1,58.2 µM (inactive),40.7 µM (inactive),,64.1 µM (inactive),48.1 µM (inactive),> 100 µM (inactive),> 100 µM (inactive),55.2 µM (inactive),> 100 µM (inactive),> 100 µM (inactive),> 100 µM (inactive),> 100 µM (inactive),97.3 µM (inactive),> 100 µM (inactive),87.5 µM (inactive),> 100 µM (inactive)
CN[C@@H](C)[C@H](N)c1ccccc1,,> 100 µM (inactive),> 100 µM (inactive),> 100 µM (inactive),,> 100 µM (inactive),,> 100 µM (inactive),> 100 µM (inactive),> 100 µM (inactive),> 100 µM (inactive),> 100 µM (inactive),> 100 µM (inactive),> 100 µM (inactive),,
CCOC(=O)C1=C(Nc2ccccc2)SCC1=O,> 100 µM (inactive),> 100 µM (inactive),,> 100 µM (inactive),> 100 µM (inactive),> 100 µM (inactive),> 100 µM (inactive),> 100 µM (inactive),> 100 µM (inactive),> 100 µM (inactive),10 µM (inactive),> 100 µM (inactive),> 100 µM (inactive),> 100 µM (inactive),63.2 µM (inactive),> 100 µM (inactive)
O=C(Nc1cccc(Cl)c1)C(=O)C(C(=O)c1ccc2ccccc2c1)C1OC(=O)c2ccccc21 (stereo not given),13.1 µM (inactive),12.6 µM (inactive),,8.75 µM (inactive),,24.6 µM (inactive),24.8 µM (inactive),17.3 µM (inactive),22.4 µM (inactive),30 µM (inactive),5.4 µM (inactive),29 µM (inactive),25.4 µM (inactive),3.99 µM (inactive),8.41 µM (inactive),5.3 µM (inactive)
CCN(CC)C(=O)Cc1[nH][nH]c(=O)c1C(=O)N(CC)CC,> 100 µM (inactive),> 100 µM (inactive),> 100 µM (inactive),> 100 µM (inactive),> 100 µM (inactive),> 100 µM (inactive),,> 100 µM (inactive),> 100 µM (inactive),> 100 µM (inactive),> 100 µM (inactive),> 100 µM (inactive),> 100 µM (inactive),> 100 µM (inactive),> 100 µM (inactive),> 100 µM (inactive)
CCOc1cccc2c1N[S@@](=O)S2,> 100 µM (inactive),> 100 µM (inactive),,,74.8 µM (inactive),> 100 µM (inactive),,> 100 µM (inactive),> 100 µM (inactive),> 100 µM (inactive),47.8 µM (inactive),> 100 µM (inactive),> 100 µM (inactive),55.3 µM (inactive),,59.2 µM (inactive)
O=C(CC1(O)C(=O)Nc2ccccc21)c1ccc(O)cc1O (stereo not given),> 100 µM (inactive),> 100 µM (inactive),> 100 µM (inactive),> 100 µM (inactive),,> 100 µM (inactive),> 100 µM (inactive),> 100 µM (inactive),> 100 µM (inactive),> 100 µM (inactive),,> 100 µM (inactive),> 100 µM (inactive),> 100 µM (inactive),> 100 µM (inactive),> 100 µM (inactive)
c1ccc(C2=NOC3C4CCC(C4)C23)cc1 (stereo not given),> 100 µM (inactive),> 100 µM (inactive),,> 100 µM (inactive),> 100 µM (inactive),> 100 µM (inactive),> 100 µM (inactive),,> 100 µM (inactive),> 100 µM (inactive),> 100 µM (inactive),> 100 µM (inactive),> 100 µM (inactive),> 100 µM (inactive),> 100 µM (inactive),> 100 µM (inactive)
O=C1Nc2cc([N+](=O)[O-])c(Br)cc2C1=O,22.5 µM (inactive),,24.7 µM (inactive),30.5 µM (inactive),10.2 µM (inactive),17.5 µM (inactive),,18.5 µM (inactive),17.5 µM (inactive),95.7 µM (inactive),> 10 µM (inactive),> 100 µM (inactive),18.2 µM (inactive),10.4 µM (inactive),16.4 µM (inactive),> 10 µM (inactive)
COC(=O)CC1N/C(=N\C#N)N(CCc2c[nH]c3ccccc23)C1=O (stereo not given),,> 100 µM (inactive),> 100 µM (inactive),> 100 µM (inactive),94.2 µM (inactive),> 100 µM (inactive),> 100 µM (inactive),> 100 µM (inactive),> 100 µM (inactive),> 100 µM (inactive),> 100 µM (inactive),> 100 µM (inactive),> 100 µM (inactive),> 100 µM (inactive),> 100 µM (inactive),> 100 µM (inactive)
O=c1[nH]c(=O)n(C2OC3COC2C3O)cc1F (stereo not given),> 100 µM (inactive),,> 100 µM (inactive),> 100 µM (inactive),,48.1 µM (inactive),> 100 µM (inactive),> 100 µM (inactive),,> 100 µM (inactive),> 100 µM (inactive),> 100 µM (inactive),> 100 µM (inactive),> 100 µM (inactive),> 100 µM (inactive),> 100 µM (inactive)
